In the supplement of paper PMC5908809:

Experiments:
[1] = system: normal NK cells expanded with K562-aAPC; test: drug sensitivity score (DSS) (DSS units); higher = more sensitive; extreme values may be limits of the assay; conditions: 72 h; IL-2 2.5 ng/mL
Experimental: (§1)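 Drug sensitivity and resistance testing on K562-aAPC-expanded normal NK cells: 5 concentrations (10-fold steps over a 10,000-fold range), 72 h at 37 °C, viability by CellTiter-Glo normalised to DMSO and benzethonium chloride controls; DSS from the fitted curve.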

NK-YS (IL-2 2.5 ng/mL) [2] = test: as above; conditions: 72 h
KHYG-1 (IL-2 2.5 ng/mL) [3] = test: as above; conditions: 72 h
[4] = system: normal primary NK cells, pool 1 (3 donors), resting (IL-2 0 ng/mL); test: as above; conditions: 72 h
[5] = system: normal primary NK cells, pool 1 (3 donors) (IL-2 2.5 ng/mL); test: as above; conditions: 72 h
YT (IL-2 2.5 ng/mL) [6] = test: as above; conditions: 72 h
DERL-7 (IL-2 2.5 ng/mL) [7] = test: as above; conditions: 72 h
KAI3 (IL-2 2.5 ng/mL) [8] = test: as above; conditions: 72 h
NKL (IL-2 2.5 ng/mL) [9] = test: as above; conditions: 72 h
SNK-6 (IL-2 2.5 ng/mL) [10] = test: as above; conditions: 72 h
IMC-1 (IL-2 20 ng/mL) [11] = test: as above; conditions: 72 h
[12] = system: normal primary NK cells, pool 3 (3 donors) (IL-2 2.5 ng/mL); test: as above; conditions: 72 h
NK-92 (IL-2 2.5 ng/mL) [13] = test: as above; conditions: 72 h
[14] = system: normal primary NK cells, pool 2 (3 donors) (IL-2 2.5 ng/mL); test: as above; conditions: 72 h
NK-YS (IL-2 2.5 ng/mL) [15] = test: percent inhibition of viability; higher = more inhibition; conditions: 72 h
KHYG-1 (IL-2 2.5 ng/mL) [16] = test: as above; conditions: 72 h
[17] = system: normal primary NK cells, pool 1 (3 donors), resting (IL-2 0 ng/mL); test: as above; conditions: 72 h
[18] = system: normal primary NK cells, pool 1 (3 donors) (IL-2 2.5 ng/mL); test: as above; conditions: 72 h
YT (IL-2 2.5 ng/mL) [19] = test: as above; conditions: 72 h
DERL-7 (IL-2 2.5 ng/mL) [20] = test: as above; conditions: 72 h
KAI3 (IL-2 2.5 ng/mL) [21] = test: as above; conditions: 72 h
NKL (IL-2 2.5 ng/mL) [22] = test: as above; conditions: 72 h
SNK-6 (IL-2 2.5 ng/mL) [23] = test: as above; conditions: 72 h
IMC-1 (IL-2 20 ng/mL) [24] = test: as above; conditions: 72 h
[25] = system: normal primary NK cells, pool 3 (3 donors) (IL-2 2.5 ng/mL); test: as above; conditions: 72 h
NK-92 (IL-2 2.5 ng/mL) [26] = test: as above; conditions: 72 h
[27] = system: normal primary NK cells, pool 2 (3 donors) (IL-2 2.5 ng/mL); test: as above; conditions: 72 h
[28] = system: normal NK cells expanded with K562-aAPC; test: as above; conditions: 72 h, IL-2 2.5 ng/mL
Experimental: as §1

COc1cccc2c1C(=O)c1c(O)c3c(c(O)c1C2=O)C[C@@](O)(/C(CO)=N/NC(=O)CCCCCN1C(=O)C=CC1=O)C[C@@H]3O[C@H]1C[C@H](N)[C@H](O)[C@H](C)O1 [Aldoxorubicin] (max concentration tested 1000 nM)
Conditions | drug sensitivity score
DERL-7 (IL-2 2.5 ng/mL) [7] | 17.6
IMC-1 (IL-2 20 ng/mL) [11] | 16
KAI3 (IL-2 2.5 ng/mL) [8] | 14.2
KHYG-1 (IL-2 2.5 ng/mL) [3] | 14.7
NK-92 (IL-2 2.5 ng/mL) [13] | 12
NK-YS (IL-2 2.5 ng/mL) [2] | 17
NKL (IL-2 2.5 ng/mL) [9] | 28.9
SNK-6 (IL-2 2.5 ng/mL) [10] | 18.9
YT (IL-2 2.5 ng/mL) [6] | 13.6
[1] | 11.1
[4] | 12.4
[5] | 9.69
[12] | 9.86
[14] | 11.3

percent inhibition of viability [%]
Conditions | 0.1 nM | 1 nM | 10 nM | 100 nM | 1000 nM
DERL-7 (IL-2 2.5 ng/mL) [20] | -4.24 | -3.44 | 13.3 | 87.3 | 101
IMC-1 (IL-2 20 ng/mL) [24] | -3.88 | -4.51 | 3.18 | 86.5 | 101
KAI3 (IL-2 2.5 ng/mL) [21] | -11.1 | -12.4 | 4.9 | 74.1 | 87
KHYG-1 (IL-2 2.5 ng/mL) [16] | -0.32 | 5.45 | -0.18 | 79.9 | 106
NK-92 (IL-2 2.5 ng/mL) [26] | -14.3 | -7.33 | -3.29 | 53.2 | 104
NK-YS (IL-2 2.5 ng/mL) [15] | -4.26 | -3.37 | 13.9 | 83.1 | 103
NKL (IL-2 2.5 ng/mL) [22] | -13.6 | -5.62 | 92.1 | 103 | 107
SNK-6 (IL-2 2.5 ng/mL) [23] | 7.67 | 13.7 | 17.1 | 91.1 | 95.2
YT (IL-2 2.5 ng/mL) [19] | 3.75 | -0.69 | -3.82 | 70.5 | 105
[17] | -26 | -23.3 | -31.6 | 64.9 | 91.5
[18] | -11.9 | -3.83 | -12.3 | 29.5 | 97.6
[25] | -11.3 | -10.4 | 0.28 | 31.5 | 97.1
[27] | -13.7 | -6.33 | 0.42 | 49.2 | 94.5
[28] | 0.3 | 4.21 | 5.36 | 47 | 101

CCC1(c2ccc(N)cc2)CCC(=O)NC1=O (stereo not drawn) [Aminoglutethimide] (max concentration tested 10000 nM)
Conditions | drug sensitivity score
DERL-7 (IL-2 2.5 ng/mL) [7] | 0
IMC-1 (IL-2 20 ng/mL) [11] | 0
KAI3 (IL-2 2.5 ng/mL) [8] | 0
KHYG-1 (IL-2 2.5 ng/mL) [3] | 0
NK-92 (IL-2 2.5 ng/mL) [13] | 0
NK-YS (IL-2 2.5 ng/mL) [2] | 0
NKL (IL-2 2.5 ng/mL) [9] | 0.06
SNK-6 (IL-2 2.5 ng/mL) [10] | 0
YT (IL-2 2.5 ng/mL) [6] | 0
[1] | 0
[4] | 0.43
[5] | 0
[12] | 0
[14] | 0

percent inhibition of viability [%]
Conditions | 1 nM | 10 nM | 100 nM | 1000 nM | 10000 nM
DERL-7 (IL-2 2.5 ng/mL) [20] | 6.92 | 1.97 | 7.28 | -2.32 | 7.58
IMC-1 (IL-2 20 ng/mL) [24] | 1.84 | 4.93 | 3.29 | 2.36 | 3.88
KAI3 (IL-2 2.5 ng/mL) [21] | 14 | 10.4 | 8.76 | 9.73 | 9.01
KHYG-1 (IL-2 2.5 ng/mL) [16] | 16.4 | 0 | 11 | 1.44 | 15.2
NK-92 (IL-2 2.5 ng/mL) [26] | 7.96 | 0.54 | 12.4 | 0.81 | 11.1
NK-YS (IL-2 2.5 ng/mL) [15] | 4.81 | 6.87 | 2.26 | 7.56 | 4.69
NKL (IL-2 2.5 ng/mL) [22] | 28.3 | 0.83 | 18.7 | -2.97 | 15.1
SNK-6 (IL-2 2.5 ng/mL) [23] | 21.1 | 17.4 | 10.2 | -16 | -32.7
YT (IL-2 2.5 ng/mL) [19] | 13.1 | 2.62 | 11.4 | 2.84 | 12.5
[17] | -3.93 | -9.4 | -1.78 | -7.06 | 21.1
[18] | -5.3 | -8.94 | -8.74 | -4.93 | 1.17
[25] | 4.12 | -2.09 | 1.89 | 3.88 | 6.3
[27] | 3.13 | 3.88 | 0.19 | 1.2 | 8.45
[28] | 1.05 | -2.97 | -1 | -2.85 | 0.83
